Earlier results in patent US10328111B2, “Water-soluble phytocannabinoid formulations” (Solva, LLC, priority 2014, dated 2019).

For `C=C(C)[C@@H]1CCC(C)=C[C@H]1c1c(O)cc(CCCCC)cc1O` [cannabidiol], the oral bioavailability is listed as “about 6%”.
